Experimental data: patent US10640506B2, “Cyclobutyl substituted pyrrolopyridine and pyrrolopyrimidines derivatives as JAK inhibitors” (Incyte Corporation, priority 2010, dated 2020)

Experiments:
JAK2 (a.a. 828-1132) = target: T1, JAK2 (a.a. 828-1132) (Homo sapiens, UniProt O60674); experiment: In vitro JAK kinase assay (HTRF, phosphorylation of biotinylated peptide), JAK2; format: biochemical; details: Table F; 1 mM ATP
T1 construct: JAK2 (a.a. 828-1132); His tag (N)
Outline: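 HTRF detection (Eu-Py20, SA-APC, 40 min) of biotinylated-peptide phosphorylation, following a 1 hour room-temperature reaction quenched with 45 mM EDTA. Enzymes: insect-cell-expressed N-terminal His-tagged JAK1 (837-1142) and JAK2 (828-1132) catalytic domains. Activities reported in ranged categories.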

[1] = target: human JAK1 (a.a. 837-1142) (Homo sapiens, UniProt P23458); experiment: In vitro JAK kinase assay (HTRF, phosphorylation of biotinylated peptide), JAK1; format: biochemical; details: Table F; 1 mM ATP
Outline: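 Phosphorylation of a biotinylated peptide was run at room temperature for 1 hour using the N-terminally His-tagged JAK1 kinase domain (837-1142) from insect cells. After an EDTA stop, Eu-Py20 and SA-APC gave an HTRF read; values are binned potency ranges.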

T1 sequence (O60674 828-1132): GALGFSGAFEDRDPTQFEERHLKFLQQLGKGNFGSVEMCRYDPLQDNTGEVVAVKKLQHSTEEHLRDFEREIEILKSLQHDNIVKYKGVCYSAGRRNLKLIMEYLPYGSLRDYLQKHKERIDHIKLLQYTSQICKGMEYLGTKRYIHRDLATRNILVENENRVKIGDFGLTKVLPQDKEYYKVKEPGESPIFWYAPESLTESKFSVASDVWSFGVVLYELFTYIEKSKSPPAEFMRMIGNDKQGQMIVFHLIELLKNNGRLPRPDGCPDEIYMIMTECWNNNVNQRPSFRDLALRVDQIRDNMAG
Chain of human JAK1 (a.a. 837-1142) (P23458 849-1154): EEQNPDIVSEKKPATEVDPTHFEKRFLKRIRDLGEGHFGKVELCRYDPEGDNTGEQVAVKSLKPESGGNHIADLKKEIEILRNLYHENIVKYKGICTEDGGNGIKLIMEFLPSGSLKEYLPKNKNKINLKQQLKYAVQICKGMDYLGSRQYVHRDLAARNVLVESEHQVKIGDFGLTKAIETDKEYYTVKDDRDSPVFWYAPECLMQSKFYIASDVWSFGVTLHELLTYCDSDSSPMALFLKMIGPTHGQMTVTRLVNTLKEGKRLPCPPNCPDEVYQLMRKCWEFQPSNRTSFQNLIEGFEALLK

Compound | IC50 (JAK2 (a.a. 828-1132)) [nM] | IC50 [1] [nM]
N#CC[C@]1(n2cc(-c3ncnc4[nH]ccc34)cn2)C[C@@H](N2CCN(C(=O)c3cc(C4(N)CCC4)nc(C(F)(F)F)n3)CC2)C1 [Example 62, {cis-3-(4-{[6-(1-aminocyclobutyl)-2-(trifluoromethyl)pyrimidin-4-yl]carbonyl}piperazin-1-yl)-1-[4-(7H-pyrrolo[2,3-d]pyrimidin-4-yl)-1H-pyrazol-1-yl]cyclobutyl}acetonitrile] | < 10 | < 10
CN(C)C1(c2cc(C(=O)N3CCN([C@H]4C[C@](CC#N)(n5cc(-c6ncnc7[nH]ccc67)cn5)C4)CC3)nc(C(F)(F)F)n2)CCC1 [Example 63, {trans-3-(4-{[6-[1-(dimethylamino)cyclobutyl]-2-(trifluoromethyl)pyrimidin-4-yl]carbonyl}piperazin-1-yl)-1-[4-(7H-pyrrolo[2,3-d]pyrimidin-4-yl)-1H-pyrazol-1-yl]cyclobutyl}acetonitrile] | 25 to 100 | < 10
CN(C)C1(c2cc(C(=O)N3CCN([C@H]4C[C@@](CC#N)(n5cc(-c6ncnc7[nH]ccc67)cn5)C4)CC3)nc(C(F)(F)F)n2)CCC1 [Example 64, {cis-3-(4-{[6-[1-(dimethylamino)cyclobutyl]-2-(trifluoromethyl)pyrimidin-4-yl]carbonyl}piperazin-1-yl)-1-[4-(7H-pyrrolo[2,3-d]pyrimidin-4-yl)-1H-pyrazol-1-yl]cyclobutyl}acetonitrile] | 25 to 100 | < 10
CN(C)Cc1cc(C(=O)N2CCN([C@H]3C[C@](CC#N)(n4cc(-c5ncnc6[nH]ccc56)cn4)C3)CC2)nc(C(F)(F)F)c1 [Example 65, {trans-3-(4-{[4-[(dimethylamino)methyl]-6-(trifluoromethyl)pyridin-2-yl]carbonyl}piperazin-1-yl)-1-[4-(7H-pyrrolo[2,3-d]pyrimidin-4-yl)-1H-pyrazol-1-yl]cyclobutyl}acetonitrile] | 25 to 100 | < 10
N#CC[C@]1(n2cc(-c3ncnc4[nH]ccc34)cn2)C[C@H](N2CCN(C(=O)c3cc(CO)cc(C(F)(F)F)n3)CC2)C1 [Example 66, {trans-3-(4-{[4-(hydroxymethyl)-6-(trifluoromethyl)pyridin-2-yl]carbonyl}piperazin-1-yl)-1-[4-(7H-pyrrolo[2,3-d]pyrimidin-4-yl)-1H-pyrazol-1-yl]cyclobutyl}acetonitrile] | 25 to 100 | < 10
N#CC[C@]1(n2cc(-c3ncnc4[nH]ccc34)cn2)C[C@H](N2CCN(C(=O)c3cc(CN)cc(C(F)(F)F)n3)CC2)C1 [Example 67, {trans-3-(4-{[4-(aminomethyl)-6-(trifluoromethyl)pyridin-2-yl]carbonyl}piperazin-1-yl)-1-[4-(7H-pyrrolo[2,3-d]pyrimidin-4-yl)-1H-pyrazol-1-yl]cyclobutyl}acetonitrile] | 25 to 100 | < 10
CNCc1cc(C(=O)N2CCN([C@H]3C[C@](CC#N)(n4cc(-c5ncnc6[nH]ccc56)cn4)C3)CC2)nc(C(F)(F)F)c1 [Example 68, {trans-3-(4-{[4-[(methylamino)methyl]-6-(trifluoromethyl)pyridin-2-yl]carbonyl}piperazin-1-yl)-1-[4-(7H-pyrrolo[2,3-d]pyrimidin-4-yl)-1H-pyrazol-1-yl]cyclobutyl}acetonitrile] | 10 to 25 | < 10
COC(C)(C)c1cc(C(=O)N2CCN([C@H]3C[C@](CC#N)(n4cc(-c5ncnc6[nH]ccc56)cn4)C3)CC2)nc(C(F)(F)F)n1 [Example 69, {trans-3-(4-{[6-(1-methoxy-1-methylethyl)-2-(trifluoromethyl)pyrimidin-4-yl]carbonyl}piperazin-1-yl)-1-[4-(7H-pyrrolo[2,3-d]pyrimidin-4-yl)-1H-pyrazol-1-yl]cyclobutyl}acetonitrile] | 25 to 100 | < 10
CNC1(c2cc(C(=O)N3CCN([C@H]4C[C@](CC#N)(n5cc(-c6ncnc7[nH]ccc67)cn5)C4)CC3)nc(C(F)(F)F)n2)CCC1 [Example 70, {trans-3-(4-{[6-[1-(methylamino)cyclobutyl]-2-(trifluoromethyl)pyrimidin-4-yl]carbonyl}piperazin-1-yl)-1-[4-(7H-pyrrolo[2,3-d]pyrimidin-4-yl)-1H-pyrazol-1-yl]cyclobutyl}acetonitrile] | < 10 | < 10
N#CC[C@]1(n2cc(-c3ncnc4[nH]ccc34)cn2)C[C@H](N2CCN(C(=O)c3cc(C#N)cc(C(F)(F)F)n3)CC2)C1 [Example 71, 2-[(4-{trans-3-(cyanomethyl)-3-[4-(7H-pyrrolo[2,3-d]pyrimidin-4-yl)-1H-pyrazol-1-yl]cyclobutyl}piperazin-1-yl)carbonyl]-6-(trifluoromethyl)isonicotinonitrile] | 25 to 100 | < 10
N#CC[C@]1(n2cc(-c3ncnc4[nH]ccc34)cn2)C[C@H](N2CCN(C(=O)c3cc(C4(O)CCC4)nc(C(F)(F)F)n3)CC2)C1 [Example 72, {trans-3-(4-{[6-(1-hydroxycyclobutyl)-2-(trifluoromethyl)pyrimidin-4-yl]carbonyl}piperazin-1-yl)-1-[4-(7H-pyrrolo[2,3-d]pyrimidin-4-yl)-1H-pyrazol-1-yl]cyclobutyl}acetonitrile] | 10 to 25 | < 10
N#CC[C@]1(n2cc(-c3ncnc4[nH]ccc34)cn2)C[C@H](N2CCN(C(=O)c3cc(C4=NCCN4)cc(C(F)(F)F)n3)CC2)C1 [Example 73, {trans-3-(4-{[4-(4,5-dihydro-1H-imidazol-2-yl)-6-(trifluoromethyl)pyridin-2-yl]carbonyl}piperazin-1-yl)-1-[4-(7H-pyrrolo[2,3-d]pyrimidin-4-yl)-1H-pyrazol-1-yl]cyclobutyl}acetonitrile] | 10 to 25 | < 10
CN(C)Cc1cc(C(=O)N2CCN([C@H]3C[C@](CC#N)(n4cc(-c5ncnc6[nH]ccc56)cn4)C3)CC2)cc(C(F)F)c1 [Example 74, {trans-3-(4-{3-(difluoromethyl)-5-[(dimethylamino)methyl]benzoyl}piperazin-1-yl)-1-[4-(7H-pyrrolo[2,3-d]pyrimidin-4-yl)-1H-pyrazol-1-yl]cyclobutyl}acetonitrile] | 10 to 25 | < 10
CC(C)(O)c1cc(C(=O)N2CCN([C@H]3C[C@](CC#N)(n4cc(-c5ncnc6[nH]ccc56)cn4)C3)CC2)nc(C(F)(F)F)c1 [Example 75, {trans-3-(4-{[4-(1-hydroxy-1-methylethyl)-6-(trifluoromethyl)pyridin-2-yl]carbonyl}piperazin-1-yl)-1-[4-(7H-pyrrolo[2,3-d]pyrimidin-4-yl)-1H-pyrazol-1-yl]cyclobutyl}acetonitrile] | 10 to 25 | < 10
COCc1cc(C(=O)N2CCN([C@H]3C[C@](CC#N)(n4cc(-c5ncnc6[nH]ccc56)cn4)C3)CC2)nc(C(F)(F)F)c1 [Example 76, {trans-3-(4-{[4-(methoxymethyl)-6-(trifluoromethyl)pyridin-2-yl]carbonyl}piperazin-1-yl)-1-[4-(7H-pyrrolo[2,3-d]pyrimidin-4-yl)-1H-pyrazol-1-yl]cyclobutyl}acetonitrile] | 10 to 25 | < 10
CC(C)(O)c1cc(C(=O)N2CCN([C@H]3C[C@](CC#N)(n4cc(-c5ccnc6[nH]ccc56)cn4)C3)CC2)nc(C(F)(F)F)n1 [Example 78, {trans-3-(4-{[6-(1-hydroxy-1-methylethyl)-2-(trifluoromethyl)pyrimidin-4-yl]carbonyl}piperazin-1-yl)-1-[4-(1H-pyrrolo[2,3-b]pyridin-4-yl)-1H-pyrazol-1-yl]cyclobutyl}acetonitrile] | 25 to 100 | < 10
CC(C)N(C)C(=O)N1CCN([C@H]2C[C@](CC#N)(n3cc(-c4ncnc5[nH]ccc45)cn3)C2)CC1 [Example 79, 4-{trans-3-(cyanomethyl)-3-[4-(7H-pyrrolo[2,3-d]pyrimidin-4-yl)-1H-pyrazol-1-yl]cyclobutyl}-N-isopropyl-N-methylpiperazine-1-carboxamide] | > 100 | 25 to 100
CCCN(C)C(=O)N1CCN([C@H]2C[C@](CC#N)(n3cc(-c4ncnc5[nH]ccc45)cn3)C2)CC1 [Example 80, 4-{trans-3-(cyanomethyl)-3-[4-(7H-pyrrolo[2,3-d]pyrimidin-4-yl)-1H-pyrazol-1-yl]cyclobutyl}-N-methyl-N-propylpiperazine-1-carboxamide] | 25 to 100 | < 10
CCNC(=O)N1CCN([C@H]2C[C@](CC#N)(n3cc(-c4ncnc5[nH]ccc45)cn3)C2)CC1 [Example 81, 4-{trans-3-(cyanomethyl)-3-[4-(7H-pyrrolo[2,3-d]pyrimidin-4-yl)-1H-pyrazol-1-yl]cyclobutyl}-N-ethylpiperazine-1-carboxamide] | 25 to 100 | < 10
CN(C)CCCN(C)C(=O)N1CCN([C@H]2C[C@](CC#N)(n3cc(-c4ncnc5[nH]ccc45)cn3)C2)CC1 [Example 82, 4-{trans-3-(cyanomethyl)-3-[4-(7H-pyrrolo[2,3-d]pyrimidin-4-yl)-1H-pyrazol-1-yl]cyclobutyl}-N-[3-(dimethylamino)propyl]-N-methylpiperazine-1-carboxamide] | > 100 | 10 to 25
CN(C(=O)N1CCN([C@H]2C[C@](CC#N)(n3cc(-c4ncnc5[nH]ccc45)cn3)C2)CC1)C1CC1 [Example 83, 4-{trans-3-(cyanomethyl)-3-[4-(7H-pyrrolo[2,3-d]pyrimidin-4-yl)-1H-pyrazol-1-yl]cyclobutyl}-N-cyclopropyl-N-methylpiperazine-1-carboxamide] | 25 to 100 | < 10
